The text below walks through data of PMC5963671, “Hes1 inhibitor isolated by target protein oriented natural products isolation (TPO-NAPI) of differentiation activators of neural stem cells† †Electronic supplementary information (ESI) available. See DOI: 10.1039/c5sc03540f” (Chemical Science, 2015).

The target in data set [1] is T1, Hes1 (Rattus norvegicus, UniProt Q04666).
T1 construct: Rat-Hes1 (residues 3-281)
T1 sequence (Q04666 3-281): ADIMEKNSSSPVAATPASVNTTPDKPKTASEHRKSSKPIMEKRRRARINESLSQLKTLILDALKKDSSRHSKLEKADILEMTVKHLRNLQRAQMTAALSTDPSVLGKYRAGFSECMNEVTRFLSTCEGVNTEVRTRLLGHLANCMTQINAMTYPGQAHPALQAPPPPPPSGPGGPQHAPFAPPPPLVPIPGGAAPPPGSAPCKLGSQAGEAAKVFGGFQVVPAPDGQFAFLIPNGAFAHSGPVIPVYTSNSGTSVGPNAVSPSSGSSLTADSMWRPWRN
As to the kind of experiment: Hes1 dimer fluorescence plate assay (Cy3-Hes1); binding also shown by GST-Hes1 beads-HPLC with truncated proteins.

In data set [2] the target is T1, Hes1. As to the kind of experiment: biochemical. Also noted: Fluorescence plate assay of Hes1 dimer formation, immobilized Hes1 with Cy3-labeled Hes1. To be noted: Hes1 dimer formation. The protocol:
Nunc Immobilizer™ Amino 96 well plate, white (Nalge Nunc Int.) was used for immobilizing of Hes1. The wells were incubated with 100 μL of Hes1 (10 μg mL^–1 in PBS) for 2 h at 4 °C. After the removal of protein solution, to block remaining activated units on the well, the wells were incubated for 2 h at 4 °C with 100 μL of 10 mM ethanolamine (in 100 mM Na2CO3 buffer, pH 9.6), then washed twice with 200 μL of PBST (PBS containing 0.05% Tween 20). The Hes1 bound microplate wells were incubated with 50 μL of Cy3-labeled-Hes1 in NET-N buffer (ca. 7 mg L^–1, dye/protein = 0.65) for 24 h at 4 °C. After removal of protein solution, each well was washed twice with 200 μL of PBST, then each compound solution (NET-N buffer, 50 μL) was added. After incubation for 1 h at RT in the dark, each well was washed twice with 200 μL of PBST, then dried under reduced pressure 1 h in the dark. The fluorescence intensity was measured in a microplate reader (Fluoroskan Ascent, Thermo). The Cy3 dye was excited at 530 nm and emitted at 590 nm. Usually, the assays were carried out in three individual wells, and the mean value and SD were calculated. Fig. 4 Hes1 dimer formation inhibitory activity. (a) Schematic representation of the assay for inhibitors of Hes1 dimer formation. Rat-Hes1 (residues 3-281) was exposed to Cy3-labeled Hes1. Hes1 dimer was detected through its fluorescence intensity.[40] The assay was performed after the equilibrium of exchange between immobilized Hes1 with Cy3-Hes1 and unlabeled Hes1 which was estimated to be included as unlabeled Hes1 dimers at the immobilizing stage. (b) Hes1 dimer formation inhibition by the isolated compounds 2–4. […] The complex was detected with horseradish peroxidase (HRP) conjugated anti-GST antibody. […] The ratio of dye/protein was calculated from the absorption for Cy3 (ε 150000 M-1 cm-1 at 552 nm). […] Fluorescence plate assay for inhibitors of Hes1 dimer formation Nunc ImmobilizerTM Amino 96 well plate, white (Nalge Nunc Int.) was used for immobilizing of Hes1. […] The fluorescence intensity was measured in a microplate reader (Fluoroskan Ascent, Thermo). […]

Data set [3] concerns the target T1, Hes1. Nature of the data set: Hes1 dimer fluorescence plate assay (Cy3-Hes1); binding also shown by GST-Hes1 beads-HPLC.
Data set [4] concerns the molecule itself. As to the kind of experiment: fluorescence plate assay (Hes1 dimer plate assay); Hes1 (10 μg/mL in PBS) immobilised on a Nunc Immobilizer Amino 96 well plate; Cy3-labeled Hes1 (ca. 7 mg/L) in NET-N buffer for 24 h at 4 °C; washed with PBST; fluorescence read at 530/590 nm.

Broadly, the IC50 is the concentration that inhibits the measured activity by half. A higher IC50 goes with lower potency.

A value given as a limit tells only on which side of the number the result lay.

Take `COc1ccc(-c2cc(=O)c3c(O[C@@H]4O[C@H](CO[C@@H]5OC[C@@H](O)[C@H](O)[C@H]5O)[C@@H](O)[C@H](O)[C@H]4O)cc(OC)cc3o2)cc1` [compound 2, agalloside]: the IC50 in data set [1] was 10.1 µM.

`CCCC(=O)/C=C/C1=C(O)C(=O)c2cc(O)c(O)cc2C1=O` [compound 1, lindbladione] showed an IC50 in data set [2] of 3.7 µM. Molecule `COc1cc(O[C@@H]2O[C@H](CO[C@@H]3OC[C@@H](O)[C@H](O)[C@H]3O)[C@@H](O)[C@H](O)[C@H]2O)c2c(=O)cc(-c3ccc(O)cc3)oc2c1` [compound 3, genkwanin 5-O-β-D-xylosyl-β-D-glucoside] registered an IC50 in data set [2] above 64 µM. In data set [3], `COc1cc(O[C@@H]2O[C@H](CO[C@@H]3OC[C@@H](O)[C@H](O)[C@H]3O)[C@@H](O)[C@H](O)[C@H]2O)c2c(=O)cc(-c3ccc(OC)c(OC)c3)oc2c1` [compound 4, lethedioside A] gave a half-maximal inhibitory concentration (IC50) of 9.5 µM. For the molecule `COc1c(O)cc2oc3cc(O)c(CC=C(C)C)c(O)c3c(=O)c2c1CC=C(C)C` [compound 5, α-Mangostine], the IC50 in data set [2] is above 64 µM.

B1: Rat-Hes1 (residues 3-281) (natural protein, UniProt Q04666 3-281, looked up)
chain: ADIMEKNSSSPVAATPASVNTTPDKPKTASEHRKSSKPIMEKRRRARINESLSQLKTLILDALKKDSSRHSKLEKADILEMTVKHLRNLQRAQMTAALSTDPSVLGKYRAGFSECMNEVTRFLSTCEGVNTEVRTRLLGHLANCMTQINAMTYPGQAHPALQAPPPPPPSGPGGPQHAPFAPPPPLVPIPGGAAPPPGSAPCKLGSQAGEAAKVFGGFQVVPAPDGQFAFLIPNGAFAHSGPVIPVYTSNSGTSVGPNAVSPSSGSSLTADSMWRPWRN
modifications: Cy3 label on the copy added in solution (dye/protein = 0.65); the immobilised copy is unlabelled
notes: Hes1 (hairy and Enhancer of split 1), rat, residues 3-281; One copy was coupled to a Nunc Immobilizer Amino plate and the other was Cy3-labelled; also called Cy3-labeled Hes1; Cy3-Hes1
Take B1: the binding result in data set [4] is given as “binds”.
